Source: ChEMBL document CHEMBL3425496, “Exploring experimental and computational markers of cyclic peptides: Charting islands of permeability” (Eur J Med Chem, 2015)
Square brackets hold non-standard residues; d marks the D form. Peptide text beside a SMILES is read from it. Sar = CNCC(=O)O

Tests used:
[1] = Apparent permeability from apical to basolateral side in human Caco2 cells by LC-MS analysis; assay type: ADME, cell-based; details: Caco-2
[2] = Apparent permeability of the compound at 50 uM after 5 hrs by PAMPA method; assay type: physicochemical

Compound: CC(C)C[C@@H]1NC(=O)[C@H](Cc2ccccc2)NC(=O)[C@H]([C@@H](C)O)NC(=O)CN(C)C(=O)[C@H]([C@@H](C)O)NC(=O)[C@H](Cc2ccc(O)cc2)NC1=O (cyclo(FLYT[Sar]T))
- Papp A→B [1]: 0.17 ×10⁻⁶ cm/s
- Papp at 5 h, 50 µM [2]: 0.02 ×10⁻⁶ cm/s

Compound: CC(C)C[C@H]1C(=O)N2CCC[C@@H]2C(=O)N(C)[C@@H](Cc2ccc(O)cc2)C(=O)N[C@@H](C)C(=O)NCC(=O)N(C)[C@@H](Cc2ccccc2)C(=O)N1C
- Papp A→B [1]: 0.1 ×10⁻⁶ cm/s
- Papp at 5 h, 50 µM [2]: 0.16 ×10⁻⁶ cm/s

Compound: CC(C)C[C@@H]1NC(=O)[C@H](Cc2c[nH]c3ccccc23)NC(=O)[C@H]2CCCN2C(=O)[C@@H](CC(C)C)NC(=O)[C@@H](CC(C)C)NC(=O)[C@@H](CC(C)C)NC1=O
- Papp A→B [1]: 9.46 ×10⁻⁶ cm/s
- Papp at 5 h, 50 µM [2]: 3.33 ×10⁻⁶ cm/s

Compound: CC(C)C[C@H]1NC(=O)[C@H](CC(C)C)N(C)C(=O)[C@H](CC(C)C)N(C)C(=O)[C@H](Cc2ccc(O)cc2)NC(=O)[C@@H]2CCCN2C(=O)[C@H]2CCCN2C1=O
- Papp A→B [1]: 5.45 ×10⁻⁶ cm/s
- Papp at 5 h, 50 µM [2]: 1.11 ×10⁻⁶ cm/s

Compound: CC(C)C[C@@H]1NC(=O)[C@@H](CC(C)C)N(C)C(=O)[C@@H](CC(C)C)N(C)C(=O)[C@H](Cc2ccc(O)cc2)NC(=O)[C@@H]2CCCN2C(=O)[C@@H](CC(C)C)N(C)C1=O
- Papp A→B [1]: 14.7 ×10⁻⁶ cm/s
- Papp at 5 h, 50 µM [2]: 0.1 ×10⁻⁶ cm/s

Compound: CC(C)C[C@@H]1NC(=O)[C@H](Cc2ccccc2)NC(=O)CNC(=O)[C@@H](C)NC(=O)[C@H](Cc2ccc(O)cc2)NC(=O)[C@@H]2CCCN2C1=O
- Papp A→B [1]: < 0.14 ×10⁻⁶ cm/s
- Papp at 5 h, 50 µM [2]: 0.03 ×10⁻⁶ cm/s

Compound: CC(C)C[C@@H]1NC(=O)CNC(=O)[C@H](Cc2ccccc2)NC(=O)[C@H](CC(N)=O)NC(=O)[C@H](Cc2ccc(O)cc2)NC(=O)[C@H](C)NC1=O (cyclo(AYNFGL))
- Papp A→B [1]: 0.02 ×10⁻⁶ cm/s
- Papp at 5 h, 50 µM [2]: 0.01 ×10⁻⁶ cm/s
